Measurements as given in ChEMBL document CHEMBL5108033, “Salidroside attenuates sepsis-associated acute lung injury through PPP1R15A mediated endoplasmic reticulum stress inhibition” (2022).
The source made the active and inactive calls. The calls are words filed in the database; no cut-off is given here.

How the values were obtained:
Rattus norvegicus [1] = test: Protection against cecal ligation-induced Sprague-Dawley rat sepsis associated acute lung injury model assessed as reduction in albumin content in alveolar lavage fluid supernatant at 50 mg/kg, ip and measured after 24 hrs; format: functional, organism-based
Rattus norvegicus [2] = test: Protection against cecal ligation-induced Sprague-Dawley rat sepsis associated acute lung injury model assessed as reduction in lung injury at 50 mg/kg, ip and measured after 24 hrs by H and E staining based analysis; format: functional, organism-based
Rattus norvegicus [3] = test: Protection against cecal ligation-induced Sprague-Dawley rat sepsis associated acute lung injury model assessed as reduction in total cell number in BALF at 50 mg/kg, ip and measured after 24 hrs by cell counter analysis; format: functional, organism-based
Rattus norvegicus [4] = test: Protection against cecal ligation-induced Sprague-Dawley rat sepsis associated acute lung injury model assessed as reduction in serum TNF-alpha at 50 mg/kg, ip and measured after 24 hrs by ELISA; format: functional, organism-based
Rattus norvegicus [5] = test: Protection against cecal ligation-induced Sprague-Dawley rat sepsis associated acute lung injury model assessed as downregulation of cecal ligation induced ATF4 level at 50 mg/kg, ip and measured after 24 hrs; format: functional, organism-based
Rattus norvegicus [6] = test: Protection against cecal ligation-induced Sprague-Dawley rat sepsis associated acute lung injury model assessed as upregulation of cecal ligation inhibited PPP1R15A at 50 mg/kg, ip and measured after 24 hrs; format: functional, organism-based
Rattus norvegicus [7] = test: Protection against cecal ligation-induced Sprague-Dawley rat sepsis associated acute lung injury model assessed as reduction in serum IL-1beta at 50 mg/kg, ip and measured after 24 hrs by ELISA; format: functional, organism-based
Rattus norvegicus [8] = test: Protection against cecal ligation-induced Sprague-Dawley rat sepsis associated acute lung injury model assessed as reduction in lung water content at 50 mg/kg, ip and measured after 24 hrs; format: functional, organism-based
Rattus norvegicus [9] = test: Protection against cecal ligation-induced Sprague-Dawley rat sepsis associated acute lung injury model assessed as downregulation of cecal ligation induced phosphorylated eIF-2alpha level at 50 mg/kg, ip and measured after 24 hrs; format: functional, organism-based
Rattus norvegicus [10] = test: Protection against cecal ligation-induced Sprague-Dawley rat sepsis associated acute lung injury model assessed as reduction in neutrophil elastase activity in BALF at 50 mg/kg, ip and measured after 24 hrs by Elastase assay; format: functional, organism-based
Rattus norvegicus [11] = test: Protection against cecal ligation-induced Sprague-Dawley rat sepsis associated acute lung injury model assessed as reduction in neutrophil number in BALF at 50 mg/kg, ip and measured after 24 hrs by cell counter analysis; format: functional, organism-based
Rattus norvegicus [12] = test: Protection against cecal ligation-induced Sprague-Dawley rat sepsis associated acute lung injury model assessed as reduction in lung wet weight to dry weight ratio at 50 mg/kg, ip and measured after 24 hrs; format: functional, organism-based
Rattus norvegicus [13] = test: Protection against cecal ligation-induced Sprague-Dawley rat sepsis associated acute lung injury model assessed as reduction in serum IL-6 at 50 mg/kg, ip and measured after 24 hrs by ELISA; format: functional, organism-based
Rattus norvegicus [14] = test: Protection against cecal ligation-induced Sprague-Dawley rat sepsis associated acute lung injury model assessed as downregulation of cecal ligation induced CHOP level at 50 mg/kg, ip and measured after 24 hrs; format: functional, organism-based
Rattus norvegicus [15] = test: Protection against cecal ligation-induced Sprague-Dawley rat sepsis associated acute lung injury model assessed as downregulation of cecal ligation induced GRP78 level at 50 mg/kg, ip and measured after 24 hrs; format: functional, organism-based
Epithelial cell [16] = test: Induction of apoptosis in LPS-stimulated human HBE cells with silenced PPP1R15A assessed as late apoptotic cells at 40 uM incubated for 1 hr by AnnexinV-FITC/PI staining based flow cytometric analysis (Rvb=85.7%); format: functional
Epithelial cell [17] = test: Downregulation of ATF4 in LPS-stimulated human HBE cells with silenced PPP1R15A at 40 uM incubated for 1 hr in presence of TUDCA by western blot analysis; format: functional, cell-based
Epithelial cell [18] = test: Induction of apoptosis in LPS-stimulated human HBE cells with silenced PPP1R15A assessed as late apoptotic cells at 40 uM incubated for 1 hr by AnnexinV-FITC/PI staining based flow cytometric analysis (Rvb=2.30%); format: functional
Epithelial cell [19] = test: Upregulation of PPP1R15A expression in LPS-stimulated human HBE cells assessed as inhibition of LPS down regulated PPP1R15A expression at 40 uM incubated for 1 hrs by qRT-PCR analysis; format: functional, cell-based
Epithelial cell [20] = test: Induction of apoptosis in LPS-stimulated human HBE cells with silenced PPP1R15A assessed as early apoptotic cells at 40 uM incubated for 1 hr by AnnexinV-FITC/PI staining based flow cytometric analysis (Rvb=11%); format: functional
Epithelial cell [21] = test: Cytotoxicity against LPS-stimulated human HBE cells assessed as increase in cell viability at 40 uM and measured for 24 to 72 hrs by CCK-8 assay; format: functional, cell-based; settings: time 24-72 hrs
Epithelial cell [22] = test: Downregulation of GRP78 expression in LPS-stimulated human HBE cells at 40 uM incubated for 1 hr by western blot analysis; format: functional, cell-based
Epithelial cell [23] = test: Downregulation of ATF4 expression in LPS-stimulated human HBE cells at 40 uM incubated for 1 hr by western blot analysis; format: functional, cell-based
Epithelial cell [24] = test: Inhibition of apoptosis in LPS-stimulated human HBE cells assessed as viable cells at 40 uM incubated for 1 hr by AnnexinV-FITC/PI staining based flow cytometric analysis (Rvb=72.3%); format: functional; settings: read-out: Activity
Epithelial cell [25] = test: Inhibition of apoptosis in LPS-stimulated human HBE cells assessed as necrotic cells at 40 uM incubated for 1 hr by AnnexinV-FITC/PI staining based flow cytometric analysis (Rvb=0.444%); format: functional; parameters: scale not given: the % may be the effect or the level left
Epithelial cell [26] = test: Inhibition of apoptosis in LPS-stimulated human HBE cells with silenced PPP1R15A assessed as necrotic cells at 40 uM incubated for 1 hr in presence of TUDCA by AnnexinV-FITC/PI staining based flow cytometric analysis (Rvb=83.2%); format: functional; parameters: scale not given: the % may be the effect or the level left
Epithelial cell [27] = test: Downregulation of phosphorylated eIF-2alpha expression in LPS-stimulated human HBE cells at 40 uM incubated for 1 hr by western blot analysis; format: functional, cell-based
Epithelial cell [28] = test: Induction of apoptosis in LPS-stimulated human HBE cells with silenced PPP1R15A assessed as necrotic cells at 40 uM incubated for 1 hr by AnnexinV-FITC/PI staining based flow cytometric analysis (Rvb=0.518%); format: functional
Epithelial cell [29] = test: Downregulation of CHOP in LPS-stimulated human HBE cells with silenced PPP1R15A at 40 uM incubated for 1 hr in presence of TUDCA by western blot analysis; format: functional, cell-based
Epithelial cell [30] = test: Inhibition of apoptosis in LPS-stimulated human HBE cells assessed as early apoptotic cells at 40 uM incubated for 1 hr by AnnexinV-FITC/PI staining based flow cytometric analysis (Rvb=21.5%); format: functional; parameters: scale not given: the % may be the effect or the level left
Epithelial cell [31] = test: Inhibition of apoptosis in LPS-stimulated human HBE cells assessed as late apoptotic cells at 40 uM incubated for 1 hr by AnnexinV-FITC/PI staining based flow cytometric analysis (Rvb=5.75%); format: functional; parameters: scale not given: the % may be the effect or the level left
Epithelial cell [32] = test: Inhibition of apoptosis in LPS-stimulated human HBE cells with silenced PPP1R15A assessed as necrotic cells at 40 uM incubated for 1 hr in presence of TUDCA by AnnexinV-FITC/PI staining based flow cytometric analysis (Rvb=2.48%); format: functional; parameters: scale not given: the % may be the effect or the level left
Epithelial cell [33] = test: Inhibition of apoptosis in LPS-stimulated human HBE cells with silenced PPP1R15A assessed as early apoptotic cells at 40 uM incubated for 1 hr in presence of TUDCA by AnnexinV-FITC/PI staining based flow cytometric analysis (Rvb=9.22%); format: functional; parameters: scale not given: the % may be the effect or the level left
Epithelial cell [34] = test: Cytotoxicity against LPS-stimulated human HBE cells with silenced PPP1R15A assessed as increase in cell viability at 40 uM and measured for 24 to 72 hrs in presence of TUDCA by CCK-8 assay; format: functional, cell-based; settings: time 24-72 hrs
Epithelial cell [35] = test: Inhibition of apoptosis in LPS-stimulated human HBE cells with silenced PPP1R15A assessed as late apoptotic cells at 40 uM incubated for 1 hr in presence of TUDCA by AnnexinV-FITC/PI staining based flow cytometric analysis (Rvb=5.08%); format: functional; parameters: scale not given: the % may be the effect or the level left
Epithelial cell [36] = test: Downregulation of GRP78 in LPS-stimulated human HBE cells with silenced PPP1R15A at 40 uM incubated for 1 hr in presence of TUDCA by western blot analysis; format: functional, cell-based
Epithelial cell [37] = test: Downregulation of phosphorylated eIF-2alpha expression in LPS-stimulated human HBE cells with silenced PPP1R15A at 40 uM incubated for 1 hr in presence of TUDCA by western blot analysis; format: functional, cell-based
Epithelial cell [38] = test: Downregulation of CHOP expression in LPS-stimulated human HBE cells at 40 uM incubated for 1 hr by western blot analysis; format: functional, cell-based

C[C@@H]1C[C@H]2[C@@H]3CCC4=CC(=O)C=C[C@]4(C)[C@@]3(F)[C@@H](O)C[C@]2(C)[C@@]1(O)C(=O)CO
Activity (Rattus norvegicus [1]): Active | Activity (Rattus norvegicus [2]): Active | Activity (Rattus norvegicus [3]): Active | Activity (Rattus norvegicus [4]): Active | Activity (Rattus norvegicus [5]): Active | Activity (Rattus norvegicus [6]): Active | Activity (Rattus norvegicus [7]): Active | Activity (Rattus norvegicus [8]): Active | Activity (Rattus norvegicus [9]): Active | Activity (Rattus norvegicus [10]): Active | Activity (Rattus norvegicus [11]): Active | Activity (Rattus norvegicus [12]): Active | Activity (Rattus norvegicus [13]): Active | Activity (Rattus norvegicus [14]): Active | Activity (Rattus norvegicus [15]): Active

OC[C@H]1O[C@@H](OCCc2ccc(O)cc2)[C@H](O)[C@@H](O)[C@@H]1O [SALIDROSIDE]
Activity (Rattus norvegicus [1]): Active | Activity (Epithelial cell [16]): 74.3% | Activity (Rattus norvegicus [2]): Active | Activity (Epithelial cell [17]): Active | Activity (Epithelial cell [18]): 3.74% | Activity (Rattus norvegicus [3]): Active | Activity (Epithelial cell [19]): Active | Activity (Epithelial cell [20]): 21.3% | Activity (Rattus norvegicus [4]): Active | Activity (Rattus norvegicus [5]): Active | Activity (Epithelial cell [21]): Active | Activity (Epithelial cell [22]): Active | Activity (Rattus norvegicus [6]): Active | Activity (Epithelial cell [23]): Active | Activity (Rattus norvegicus [7]): Active | viability at 40 µM (Epithelial cell [24]): 84.7% | Activity (Epithelial cell [25]): 1.03% | Activity (Epithelial cell [26]): 84% | Activity (Epithelial cell [27]): Active | Activity (Epithelial cell [28]): 0.436% | Activity (Epithelial cell [29]): Active | Activity (Epithelial cell [30]): 11% | Activity (Epithelial cell [31]): 3.27% | Activity (Epithelial cell [32]): 0.817% | Activity (Epithelial cell [33]): 11.5% | Activity (Rattus norvegicus [8]): Active | Activity (Rattus norvegicus [9]): Active | Activity (Epithelial cell [34]): Active | Activity (Rattus norvegicus [10]): Active | Activity (Epithelial cell [35]): 3.7% | Activity (Rattus norvegicus [11]): Active | Activity (Epithelial cell [36]): Active | Activity (Rattus norvegicus [12]): Active | Activity (Rattus norvegicus [13]): Active | Activity (Rattus norvegicus [14]): Active | Activity (Epithelial cell [37]): Active | Activity (Rattus norvegicus [15]): Active | Activity (Epithelial cell [38]): Active
